Assay results taken from US8993633B2, “Treatment of muscle disease characterized by insulin resistance” (Fate Therapeutics, (Canada) Inc., priority 2009, dated 2015).

What was measured:
AMPK = AMPK kinase activity in skeletal muscle of treated mdx mice; format: in vivo, mouse; settings: metformin 100 mg/kg/day by osmotic pump, 28 days
Description: (§1) Studies were conducted in which metformin was administered to 4-week old mdx mice followed by extensive biochemical and morphologic analysis. The 4-week age group coincides with the early muscle degeneration/regeneration cycle and as such tests the ability of metformin to limit the degeneration process that begins at 3-4 weeks of age in this murine model of DMD. Metformin delivery was accomplished with the use of osmotic pump technology (Alzet). Alzet osmotic pumps are produced in a variety of formats ideal for use in murine models. The pumps were preloaded with metformin and then surgically implanted in a subcutaneous position suitable for long-term delivery, i.e. mid-scapular region. The Alzet osmotic pump was loaded with a metformin concentration selected to deliver 100 mg/kg/body wt per day, per standard diabetic treatment regimes, at 28 days of continuous infusion (Misra 2008). A skilled person will appreciate that metformin could be given orally or by other routes of administration to humans but the osmotic pump is a convenient way to regulate administration over the 28 days of the murine model. Control animals were implanted with osmotic pumps containing saline. Given that metformin is an anti-hyperglycemic agent, blood glucose levels were measured. […]

AKT = AKT kinase activity in skeletal muscle of treated mdx mice; format: in vivo, mouse; settings: for increase in AKT kinase activity compared to mdx-S control: metformin 100 mg/kg/day by osmotic pump
Description: (§2) Studies were conducted in which metformin was administered to 4-week old mdx mice followed by extensive biochemical and morphologic analysis. The 4-week age group coincides with the early muscle degeneration/regeneration cycle and as such tests the ability of metformin to limit the degeneration process that begins at 3-4 weeks of age in this murine model of DMD. Metformin delivery was accomplished with the use of osmotic pump technology (Alzet). Alzet osmotic pumps are produced in a variety of formats ideal for use in murine models. The pumps were preloaded with metformin and then surgically implanted in a subcutaneous position suitable for long-term delivery, i.e. mid-scapular region. The Alzet osmotic pump was loaded with a metformin concentration selected to deliver 100 mg/kg/body wt per day, per standard diabetic treatment regimes, at 28 days of continuous infusion (Misra 2008). A skilled person will appreciate that metformin could be given orally or by other routes of administration to humans but the osmotic pump is a convenient way to regulate administration over the 28 days of the murine model. Control animals were implanted with osmotic pumps containing saline. Given that metformin is an anti-hyperglycemic agent, blood glucose levels were measured.
(§3) Wild-type (C57BL-10) and mdx mice (C57BL/10ScSn-DMD/^mdx) were purchased from Jackson Laboratories (Bar Harbour, Me.) and housed in the University of Ottawa Animal Care Facility. Mice aged 3-4 weeks (peak necrotic stage) were surgically implanted with an (Alzet) osmotic mini-pump containing metformin or insulin for 14 and 28 days. Animals were randomly assigned to experimental or control treatment groups. Depending on the experiment, Mdx mice either received 100 mg/kg/d of metformin (Aldrich) (mdx-M) or 0.75 U of insulin (Sigma) (mdx-I). […]
(§4) Muscle samples were homogenized and quantified for protein concentration using Brafford Assay. […] Incorporation of radioactivity was counted using liquid scintillation counter. […]

GSK-3β = GSK-3β kinase activity in skeletal muscle of treated mdx mice; format: in vivo, mouse; settings: for reduction of GSK-3β activity compared to mdx-S control: metformin 100 mg/kg/day by osmotic pump
Description: as §2, §3, §4

GLUT4 = GLUT4 localization by immunohistochemistry in mdx skeletal muscle; format: in vivo, mouse
Description: as §1, with “A skilled person will appreciate that metformin could be given orally or by other routes of administration to humans but the osmotic pump is a convenient way to regulate administration over the 28 days of the murine model. Control animals were implanted with osmotic pumps containing saline.” left out
Paraffin embedded muscles were section transversely (10 µm) and deparaffinized in descending alcohols, blocked with 3% BSA and permeabilized in 0.1% triton in PBS for 1 h at RT. […] Sections were then washed and mounted using fluorescence mounting medium (DAKO).

mdx mice [1] = experiment: Glycogen deposition by periodic acid Schiff staining in mdx skeletal muscle; format: in vivo, mouse; settings: TA muscle of mdx mice, metformin treatment, PAS staining
Description: as §1

mdx mice [2] = experiment: H&E myofiber pathology and morphometry in mdx skeletal muscle; format: in vivo, mouse; settings: for proportion of smaller myofibers (CSA<1500 μm^2): mdx-M
Description: as §2
(§5) Wild-type (C57BL-10) and mdx mice (C57BL/10ScSn-DMD/^mdx) were purchased from Jackson Laboratories (Bar Harbour, Me.) and housed in the University of Ottawa Animal Care Facility. Mice aged 3-4 weeks (peak necrotic stage) were surgically implanted with an (Alzet) osmotic mini-pump containing metformin or insulin for 14 and 28 days. Animals were randomly assigned to experimental or control treatment groups. Depending on the experiment, Mdx mice either received 100 mg/kg/d of metformin (Aldrich) (mdx-M) or 0.75 U of insulin (Sigma) (mdx-I). Drug concentrations were based on the effective dose range used in diabetic mouse models (Bailey and Puah, 1986; Cohen et al., 2004)
(§6) Control groups were surgically implanted with the mini-pump containing saline (wild type [WT-S], mdx-S). Following completion of drug treatment, animals were sacrificed by cervical dislocation and skeletal muscles (tibialis anterior TA, diaphragm DIA, gastrocnemius Gastro, and Soleus) were harvested. For analysis of biochemistry, skeletal muscles were snap frozen in liquid nitrogen. For preparation of paraffin sections skeletal muscles were fixed in formalin.
Muscle sections were rehydrated in xylene followed by descending alcohols (100%, 95%, 80%), incubated in Shandon Instant Hematoxylin (Fisher Scientific) for 3 mins, washed 1 min, incubated in Eosin (Fisher Scientific) for 3 mins and then dehydrated in ascending alcohols followed by incubation in xylene. Stained sections were mounted with permount (Fisher Scientific). Quantification of morphometric parameters was performed on ˜1000 fibers per muscle.

DGC = DGC component and utrophin protein levels and sarcolemmal distribution in mdx muscle; format: in vivo, mouse
Description: as §2, §5, §6
Paraffin embedded muscles were section transversely (10 µm) and deparaffinized in descending alcohols, blocked with 3% BSA and permeabilized in 0.1% triton in PBS for 1 h at RT. Sections were then incubated in primary antibodies against GLUT4 (Chemicon), Laminin (Sigma), Utrophin, 13-Dystroglycan and γ-Sarcoglycan were purchased from Vector Laboratories. In order to amplify primary antibody signal the avidin/biotin complex technique was performed on muscle sections. As well primary mouse antibodies were diluted in M.O.M diluent (M.O.M. Basic Kit, Vector Laboratories). In brief, sections were incubated with primary antibody overnight at 4° C. then incubated in biotinylated secondary antibody for 30 mins at RT, followed by incubation in FITC-streptoavidin conjugated secondary antibody (Molecular Probes) for 1 h at RT. Sections were then washed and mounted using fluorescence mounting medium (DAKO).
Muscle samples were homogenized, lyzed and quantified for protein concentration using Brafford Assay. Equal concentrations of protein samples were resolved by 6-8% SDS-PAGE and transferred to nitrocellulose membranes. Primary antibodies against IRS, IRS^y941, IRS^S307, anti-MHC (clone MF20) were used at a dilution of 1:500. Rabbit polyclonal antibodies were detected using horseradish peroxidase-conjugated anti-rabbit at dilution of 1:5000. Immunoblots were developed using with Supersignal West Pico Chemiluminescence substrate.

mdx mice [3] = experiment: Evans blue dye uptake (sarcolemmal integrity) in mdx muscle; format: in vivo, mouse; settings: metformin-treated mdx, 28 days; untreated (MS) 42%
Description: as §5
To measure sarcolemmal integrity, treated and untreated mdx mice were injected intravenously through the dorsal tail vein with 50 ul/10 g of 1% Evans Blue Dye (EBD, Sigma) in sterilized phosphate-buffered saline (PBS 7.4). Skeletal muscle was harvested 6-8 hrs post-injection and prepared for immunofluorescence as previously described. To visualize sarcolemmal membrane, EBD infiltrated fibers sections were incubated in anti-laminin (Sigma) at 4° C. overnight and then mounted in fluorescent mounting medium (DAKO).

mdx mice [4] = experiment: Rotorod test of motor performance in mdx mice; format: in vivo, mouse; settings: mdx mice treated 28 days, by the 4th trial; 15 rpm start, 0.1 rpm/s acceleration
Description: Metformin treated mdx-mice display improved motor performance compared to saline-treated mdx-mice. Mice (mdx) 3-4 weeks of age were treated with metformin or saline for 28 days according to the protocol described above. At the end of the treatment phase, a rotorod test was performed, which was repeated daily for 3 consecutive days. The mice were 7-8 weeks of age when tested, thus young adults. The initial rotorod speed for each trial was 15 rpm with gradual acceleration at a rate of 0.1 rpm per second. Mean fall latency time refers to the average amount of time the mice could run on the rotating rod (seconds). As soon as the animals fell from the rod, the time was stopped. The average value shown represents the average of each trial (1-4) performed for 3 consecutive days. The rotorod test is a behavioural test of motor coordination or performance and fatigue resistance or exercise tolerance, where the earlier time points are essentially an adaptation to the rotorod.

mdx mice [5] = experiment: Monitoring of blood glucose and adverse health effects during drug treatment of mdx mice; format: in vivo, mouse; settings: metformin 100 mg/kg/day, throughout drug treatment
Description: as §2

[6] = cited from earlier work
[7] = immunoblot, compared to mdx-Saline control
[8] = immunohistochemistry, mdx myofibers
[9] = 28-day insulin delivery (0.75 U)

Question: For CN(C)C(=N)NC(=N)N [Metformin, N,N-dimethylimidodicarbonimidicdiamide], which “elevation in AMPK kinase activity over baseline levels in mdx-S control” value (AMPK; DIA muscle) is on record?
Answer: The value was 55%.

Question: What about the “elevation in AMPK kinase activity over baseline levels in mdx-S control” value (AMPK; TA muscle) of the same compound?
Answer: Its value is 75%.

Question: What about the “increase in AKT kinase activity compared to mdx-S control” value (AKT; DIA muscle) of the same compound?
Answer: Its value is ~80%.

Question: What about the “increase in AKT kinase activity compared to mdx-S control” value (AKT; TA muscle) of the same compound?
Answer: Its value is 83%.

Question: What about the “reduction of GSK-3β activity compared to mdx-S control” value (GSK-3β; DIA muscle) of the same compound?
Answer: The value was 66%.

Question: And the “reduction of GSK-3β activity compared to mdx-S control” value (GSK-3β; TA muscle)?
Answer: Its value is 31%.

Question: What about the GLUT4 localization (GLUT4; TA muscle of mdx mice, metformin treatment) of the same compound?
Answer: The GLUT4 localization was “restoration of GLUT4 protein to that observed in wild-type skeletal muscle”.

Question: What about the “skeletal muscle glycogen content” value (mdx mice [1]) of the same compound?
Answer: The value was “complete normalization of glycogen content”.

Question: What about the “proportion of smaller myofibers (CSA<1500 μm^2)” value (mdx mice [2]; DIA, untreated 38%) of the same compound?
Answer: Its value is 23%.

Question: And the focal necrosis (mdx mice [2]; TA, DIA, gastrocnemius and soleus of mdx mice, 28-day metformin vs saline)?
Answer: Its focal necrosis is “significant decline in the focal necrosis”.

Question: What about the “proportion of smaller myofibers (CSA<1500 μm^2)” value (mdx mice [2]; TA, untreated 22%) of the same compound?
Answer: Its value is 14%.

Question: What about the “fibers displaying central nuclei” value (mdx mice [2]; mdx-M fibers after 28 days metformin, untreated mdx-S 55%) of the same compound?
Answer: The value was ~38%.

Question: What about the utrophin protein levels (DGC; gastrocnemius, compared to mdx-Saline control) of the same compound?
Answer: Its utrophin protein levels is “increased”.

Question: What about the β-dystroglycan protein expression (DGC; [7]) of the same compound?
Answer: Its β-dystroglycan protein expression is “increased”.

Question: And the γ-sarcoglycan protein expression (DGC; [7])?
Answer: Its γ-sarcoglycan protein expression is “increased”.

Question: And the “sarcolemmal distribution of β-dystroglycan” value (DGC; [8])?
Answer: Its value is “notable increase”.

Question: What about the “sarcolemmal distribution of γ-sarcoglycan” value (DGC; [8]) of the same compound?
Answer: The value was “notable increase”.

Question: What about the “utrophin along the extrasynaptic sarcolemma” value (DGC; [8]) of the same compound?
Answer: Its value is “robust increase”.

Question: And the “myofibers positively stained for EBD” value (mdx mice [3])?
Answer: The value was 22%.

Question: And the “rotorod running time (fall latency)” value (mdx mice [4])?
Answer: The value was “significant improvement in running time”.

Question: And the “hypoglycemia or adverse health effects” value (mdx mice [5])?
Answer: Its value is “no evidence of hypoglycemia or adverse health effects”.

Question: What about the “incidence of lactic acidosis” value ([6]; patients) of the same compound?
Answer: Its value is “about 0.03 cases per 1000 patients years of treatment”.

Question: What about the “mortality risk of lactic acidosis” value ([6]; patients) of the same compound?
Answer: Its value is “about 0.015 per 1000 patient-years”.

Question: What about the “gastrointestinal adverse effects, notably diarrhea” value ([6]; remit when the dosage is reduced) of the same compound?
Answer: The value was “less than 20 % of patients”.

Question: With “insulin: insulin (Sigma), 0.75 U delivered by osmotic mini-pump to mdx mice (mdx-I)” as the compound, how does the AKT kinase activity (AKT; [9]) read?
Answer: The AKT kinase activity was “no significant change”.

Question: What about the GSK3β kinase activity (GSK-3β; [9]) of the same compound?
Answer: The GSK3β kinase activity was “only marginal changes”.

Question: What about the GLUT4 localization (GLUT4; mdx mice following insulin treatment) of the same compound?
Answer: Its GLUT4 localization is “remained localized in a perinuclear domain”.

Question: And the “fiber size variability and protection against degeneration (H&E)” value (mdx mice [2]; TA and DIA fibers of mdx-I)?
Answer: The value was “no reduction in fiber size variability and protection against degeneration”.

Question: What about the “number of centrally located nuclei” value (mdx mice [2]; mdx-I vs mdx-S) of the same compound?
Answer: Its value is “remained comparable”.

Question: What about the “fiber size distribution (morphometric analysis)” value (mdx mice [2]; mdx-I, in particular the DIA) of the same compound?
Answer: Its value is “no overall change”.
